Data on two compounds can be found in paper PMC7139479, “Insights into Interactions of Flavanones with Target Human Respiratory Syncytial Virus M2-1 Protein from STD-NMR, Fluorescence Spectroscopy, and Computational Simulations” (International Journal of Molecular Sciences, 2020).

For assay [1], the target named is T1, hRSV M2-1 protein (Human respiratory syncytial virus A, UniProt P04545).
T1 construct: allowing the expression of the full-length M2-1 with N-terminal fused to a His6-tag; made in house; host or cells: Escherichia coli BL21 RIL
In words: STD-NMR of M2-1/flavanone binding. On the set-up: species or system human Respiratory Syncytial Virus (hRSV A2 strain). The note with it: 298 K, 50 µM protein, 250 µM flavonoid. The protocol:
STD-NMR experiments were performed on a Bruker Avance III 600.13 MHz equipped with a triple resonance 5 mm cryoprobe, having the pulse field gradient along the Z axis. All data were analyzed with Bruker Topspin v3.5. A total concentration of 50 μM hRSV M2-1 protein in 50 mM K2HPO4/KH2PO4 buffer (pH 7.4) containing 150 mM NaCl and 1 mM DTT at 80/20% H2O/D2O was used for all measurements. The concentration of the flavonoids used in binding experiments was of 250 μM. The on- and off-resonance frequencies were set at −0.5 and 40 ppm, providing the best profile of protein saturation and STD effect. […] A total of 16 scans with 32 loop counters were collected with 4 dummy scans. For the suppression of the protein signals, it was applied a spinlock filter of 30 ms with 0.776 W. All measurements were performed at 298 K (25 °C) and it was used a flavonoid stock solution solubilized in deuterated DMSO-d6.
The STD effect ( ISTD ) on a given proton of the ligand was calculated according to the following equation [43, 44]:(1) ISTD=Ioff-resonance−Ion-resonance/I off-resonance where Ion-resonance and Ioff-resonance are the intensities of the ligand signals in the on- and off-resonance spectrum, respectively. The proton of the flavonoid with the highest STD effect (magnetization transfer maximum) was equal to 100% and the others protons were normalized according to this signal. The identification of ^1H NMR signals of the flavonoids at buffer solution [50 mM K2HPO4/KH2PO4 buffer (pH 7.4) at 80/20% H2O/D2O containing 150 mM NaCl and 1 mM DTT] was assisted by the resonance assignment from Chemical Book database (www.chamicalbook.com) under access code 520-33-2.

Assay [2] addresses T1, hRSV M2-1 protein. In words: Fluorescence quenching of M2-1 by flavanones (double-log plot, thermodynamic analysis). It counts as binding, human Respiratory Syncytial Virus (hRSV A2 strain). Particulars: for Enthalpy change ΔH: Van't Hoff equation from Kb at 288 and 298 K. The procedure: The fluorescence measurements were performed on a steady-state ISS-PC1 spectrofluorimeter with temperature control (thermal bath Neslab RTE-221) and equipped with quartz cuvette of 10 mm optical path length. The excitation and emission bandwidths were set at 4 and 8 nm, respectively. The excitation wavelength was of 290 nm and the emission spectra were reported between 295 and 500 nm with 10 accumulations for each collected point. The emission spectrum was corrected for the background fluorescence from the buffer solution and for inner filter effect promoted by the flavonoids. The protein-ligand interaction measures were performed by collecting the fluorescence spectra of the protein in the absence of ligand (2 mL at 6 μM) and checking for quenching of intensities after addition of increasing concentrations of flavonoids, at 288 and 298 K (15 and 25 °C). The flavonoids’ concentrations varied from 0 to 26 μM in the final solution, with the emission of the hRSV M2-1 protein analyzed at 320 nm.
For the data analysis, it was hypothesized that the binding sites of the flavonoids on the M2-1 protein are equal and independent. Thus, the binding constant (Kb) and the number of binding sites (n) can be calculated using the following equation [46]:(2) log(F0−F/F)=n·logKb+n·log1/([LT]−(F0−F/F0)[PT]) where F0 and F are the fluorescence intensity of the M2-1 protein in the absence and in the presence of the flavonoids, respectively. [PT] and [LT] is the total concentration of M2-1 protein and ligand (flavonoids), respectively. The values of Kb and n for the M2-1/flavonoids complex are obtained from the ordinate and slope of the linear fitting from the double-log plot log((F0 − F)/F) & log(1/([LT] − ((F0 − F)/F0)[PT])), respectively.
In order to investigate the driving forces responsible for the binding of the flavonoids hesperetin and hesperidin to the M2-1 protein, the enthalpy change (ΔH) of this interaction was calculated from the Van’t Hoff equation:(3) lnKb2/Kb1=−ΔH/R(1/T2−1/T1) where Kb1 and Kb2 are binding constants at the absolute temperatures T1 and T2, which were 288 and 298 K (15 and 25 °C), respectively. R corresponds to the universal gas constant ([…]). The Gibbs free energy (ΔG) and entropy changes (ΔS) for the M2-1/flavonoids complex were calculated from the following equations:(4) ΔG=−R·T·lnKb (5) ΔS=ΔH−ΔG/T

The next assay relates to RSV. Details: method as in earlier work. The note with it: against RSV; ref 28 (Kaul et al., 1985); cited from earlier work.

T1 sequence (P04545 whole entry, the tested form may be a part): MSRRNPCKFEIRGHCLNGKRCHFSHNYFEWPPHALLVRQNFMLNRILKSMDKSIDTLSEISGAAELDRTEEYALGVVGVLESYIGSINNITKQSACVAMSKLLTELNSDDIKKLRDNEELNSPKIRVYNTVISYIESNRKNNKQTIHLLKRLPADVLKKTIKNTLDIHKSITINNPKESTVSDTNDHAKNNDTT

Regarding `COc1ccc([C@@H]2CC(=O)c3c(O)cc(O[C@@H]4O[C@H](CO[C@@H]5O[C@@H](C)[C@H](O)[C@@H](O)[C@H]5O)[C@@H](O)[C@H](O)[C@H]4O)cc3O2)cc1O` [HSD, Hesperidin], the “STD effect, 1H protons on B-ring (normalized to highest signal)” value at hRSV M2-1 protein [1] turned out to be 96%. At hRSV M2-1 protein [2] (288 K), the “Gibbs free energy change ΔG” value was -5.2 kcal/mol, the “Number of binding sites n” value is 0.89 and the “T·ΔS” value is 3.5 kcal/mol. Moreover, at hRSV M2-1 protein [2] (298 K), the “Gibbs free energy change ΔG” value was -5.4 kcal/mol, the “Number of binding sites n” value amounted to 0.93 and the “T·ΔS” value came out at 3.7 kcal/mol. Further, on hRSV M2-1 protein [2], the “Enthalpy change ΔH” value was -1.7 kcal/mol.

Take `COc1ccc([C@@H]2CC(=O)c3c(O)cc(O)cc3O2)cc1O` [HST, Hesperetin]: in the assay on RSV, the Anti-replicative activity is reported as 88%. For the same compound, on hRSV M2-1 protein [1], the “STD effect, 1H protons on B-ring (normalized to highest signal)” value amounted to 72% and the “STD effect, hydrogens on A-ring (normalized to highest signal)” value came to 100%. In addition, at hRSV M2-1 protein [2] (288 K), the “Gibbs free energy change ΔG” value is -6.5 kcal/mol, the “Number of binding sites n” value was 1.05 and the “T·ΔS” value was -22.5 kcal/mol. Further, on hRSV M2-1 protein [2] (298 K), the “Gibbs free energy change ΔG” value was -5.7 kcal/mol, the “Number of binding sites n” value is listed as 1.04 and the “T·ΔS” value was -23.3 kcal/mol. In addition, on hRSV M2-1 protein [2], the “Enthalpy change ΔH” value is -29.0 kcal/mol.
